Like-named read-outs stand apart in the source and are kept apart here. One block for each substance: values may come before it. Ends that are not written are not given here.
How the values were obtained:
[1] = tested on: Pseudomonas aeruginosa clinical isolate 48,526; type: cell-based
Description: (§1) For the clinical isolates, we used 20 different isolates from the Public Health Reference Laboratory collection of the Secretaría de Salud del Distrito (SdSD; Bogotá, Colombia). The samples were collected from June to December 2016. For each isolate, the patient parameters (age, gender and location) and the culture site were recorded for epidemiologic monitoring (Table 1). All isolates had been previously tested for antibiotic sensitivity at the Public Health Microbiology Laboratory using either the Phoenix™ system (Gram-positive) or the VITEK 2 system (Gram-negative).
(§2) We screened all five peptides against the ATCC reference strains and the clinical isolates according to Method M7-A7 of the National Committee for Clinical Laboratory Standards (CLSI, [2007]). The MIC50 and MBC values were determined using a broth microdilution and growth inhibition method previously reported by Leon-Calvijo et al. ([2015]), with some modifications (Wiegand et al., [2008]). Briefly, the MIC50 experiments comprised a liquid-inhibition growth assay in a sterile, untreated, 96-well flat-bottom tissue culture plate. The bacteria were cultured overnight n Mueller Hinton agar; three colonies were transferred to 8 mL of Mueller Hilton broth and incubated at 37°C until the mid-exponential phase of growth. The turbidity of the cultures was measured and adjusted spectrophotometrically to a McFarland standard of 0.5, and then diluted to a final concentration of 5 × 10^7 colony forming units (CFU) per well. Stock solutions (2,000 μM) of each test peptide were serially diluted to final concentrations (per well) of 200, 100, 50, 25, 12.5, and 6.25 μM. Each concentration was evaluated in duplicate and each assay was performed in triplicate.
(§3) Wells containing Mueller Hilton broth with bacterial inoculum only served as bacterial-growth controls. Additional controls included Mueller Hilton broth alone (as blank) and Mueller Hilton broth with ciprofloxacin (2 μg/mL; as positive control). The microplate was incubated for 24 h at 37°C, and growth inhibition was measured by monitoring the optical density at 620 nm (OD620). The MIC50 was defined as the peptide concentration at which bacterial growth was inhibited by 50%.
(§4) To determine the MBC, an aliquot from each well of the MIC50 assay was spread onto Mueller Hilton agar. After 18 h at 37°C, the concentration that inhibited bacterial growth was determined. Each of these tests was performed four times. MBC was defined as the lowest concentration of peptide at which the number of bacteria was reduced by 99.9% in vitro (European Committee for Antimicrobial Susceptibility Testing, [2000]).

[2] = tested on: Enterococcus faecium clinical isolate 1,225; type: cell-based
Description: as §1, §2, §3, §4

[3] = tested on: Klebsiella pneumoniae clinical isolate 50,181; type: cell-based
Description: as §1, §2, §3, §4

[4] = tested on: Klebsiella pneumoniae clinical isolate 51,009; type: cell-based
Description: as §1, §2, §3, §4

[5] = tested on: Pseudomonas aeruginosa clinical isolate 48,220; type: cell-based
Description: as §1, §2, §3, §4

[6] = tested on: Pseudomonas aeruginosa clinical isolate 47,661; type: cell-based
Description: as §1, §2, §3, §4

[7] = tested on: Pseudomonas aeruginosa clinical isolate 48,221; type: cell-based
Description: as §1, §2, §3, §4

[8] = tested on: Staphylococcus aureus clinical isolate 43,062; type: cell-based
Description: as §1, §2, §3, §4

[9] = tested on: Klebsiella pneumoniae clinical isolate 49,644; type: cell-based
Description: as §1, §2, §3, §4

[10] = tested on: Klebsiella pneumoniae clinical isolate 50,424; type: cell-based
Description: as §1, §2, §3, §4

[11] = tested on: Enterococcus faecium clinical isolate 1,461; type: cell-based
Description: as §1, §2, §3, §4

[12] = tested on: Enterococcus faecium clinical isolate 550; type: cell-based
Description: as §1, §2, §3, §4

[13] = tested on: Staphylococcus aureus clinical isolate 43,337; type: cell-based
Description: as §1, §2, §3, §4

[14] = tested on: Enterococcus faecium clinical isolate 1,462; type: cell-based
Description: as §1, §2, §3, §4

[15] = tested on: Staphylococcus aureus clinical isolate 52,013; type: cell-based
Description: as §1, §2, §3, §4

[16] = tested on: clinical isolates of Gram-negative bacteria (Klebsiella pneumoniae, Pseudomonas aeruginosa); test: Therapeutic index, Gram-negative clinical isolates
Text: We determined the therapeutic index of each peptide, which we defined as the ratio of Maximum Hemolytic Activity (Hmax) to MIC50 (Hmax/MIC50).
The results are shown in Table 7 (Gram-positive) and Table 8 (Gram-negative). Regarding the Gram-positive bacteria, the palindromic, dimeric and tetrameric peptides were active chiefly against S. aureus. This trend was consistent with results of the experiments on the ATCC strains, in which these peptides were only active against the sensitive strain of the […] bacteria.

[17] = P. aeruginosa isolate 48,526, broth microdilution, 24 h 37°C, OD620, 50% growth inhibition
[18] = P. aeruginosa isolate 48,526, plated on agar 18 h 37°C, 99.9% reduction
[19] = E. faecium isolate 1,225, broth microdilution, 24 h 37°C, OD620, 50% growth inhibition
[20] = E. faecium isolate 1,225, plated on agar 18 h 37°C, 99.9% reduction
[21] = K. pneumoniae isolate 50,181, broth microdilution, 24 h 37°C, OD620, 50% growth inhibition
[22] = K. pneumoniae isolate 50,181, plated on agar 18 h 37°C, 99.9% reduction
[23] = K. pneumoniae isolate 51,009, broth microdilution, 24 h 37°C, OD620, 50% growth inhibition
[24] = K. pneumoniae isolate 51,009, plated on agar 18 h 37°C, 99.9% reduction
[25] = P. aeruginosa isolate 48,220, broth microdilution, 24 h 37°C, OD620, 50% growth inhibition
[26] = P. aeruginosa isolate 48,220, plated on agar 18 h 37°C, 99.9% reduction
[27] = P. aeruginosa isolate 47,661, broth microdilution, 24 h 37°C, OD620, 50% growth inhibition
[28] = P. aeruginosa isolate 47,661, plated on agar 18 h 37°C, 99.9% reduction
[29] = P. aeruginosa isolate 48,221, broth microdilution, 24 h 37°C, OD620, 50% growth inhibition
[30] = P. aeruginosa isolate 48,221, plated on agar 18 h 37°C, 99.9% reduction
[31] = S. aureus isolate 43,062, broth microdilution, 24 h 37°C, OD620, 50% growth inhibition
[32] = S. aureus isolate 43,062, plated on agar 18 h 37°C, 99.9% reduction
[33] = K. pneumoniae isolate 50,424, broth microdilution, 24 h 37°C, OD620, 50% growth inhibition
[34] = K. pneumoniae isolate 50,424, plated on agar 18 h 37°C, 99.9% reduction
[35] = E. faecium isolate 1,461, broth microdilution, 24 h 37°C, OD620, 50% growth inhibition
[36] = E. faecium isolate 1,461, plated on agar 18 h 37°C, 99.9% reduction
[37] = E. faecium isolate 550, broth microdilution, 24 h 37°C, OD620, 50% growth inhibition
[38] = E. faecium isolate 550, plated on agar 18 h 37°C, 99.9% reduction
[39] = S. aureus isolate 43,337, broth microdilution, 24 h 37°C, OD620, 50% growth inhibition
[40] = S. aureus isolate 43,337, plated on agar 18 h 37°C, 99.9% reduction
[41] = E. faecium isolate 1,462, broth microdilution, 24 h 37°C, OD620, 50% growth inhibition
[42] = E. faecium isolate 1,462, plated on agar 18 h 37°C, 99.9% reduction
[43] = S. aureus isolate 52,013, broth microdilution, 24 h 37°C, OD620, 50% growth inhibition
[44] = S. aureus isolate 52,013, plated on agar 18 h 37°C, 99.9% reduction

MIC50 ([1]; clinical isolate 48,526, 24 h): >100 µM | MIC50 ([2]; clinical isolate 1,225, 24 h): >100 µM | MIC50 ([3]; clinical isolate 50,181, 24 h): >100 µM | MIC50 ([4]; clinical isolate 51,009, 24 h): 25.6 µM | MIC50 ([5]; clinical isolate 48,220, 24 h): >100 µM | MIC50 ([6]; clinical isolate 47,661, 24 h): 75.0 µM | MIC50 ([7]; clinical isolate 48,221, 24 h): >100 µM | MIC50 ([8]; clinical isolate 43,062, 24 h): 50.4 µM | MIC50 ([9]; clinical isolate 49,644, 24 h): 12.5 µM | MIC50 ([10]; clinical isolate 50,424, 24 h): 5.6 µM | MIC50 ([11]; clinical isolate 1,461, 24 h): >100 µM | MIC50 ([12]; clinical isolate 550, 24 h): >100 µM | MIC50 ([13]; clinical isolate 43,337, 24 h): 13.0 µM | MIC50 ([14]; clinical isolate 1,462, 24 h): 5.7 µM | MIC50 ([15]; clinical isolate 52,013, 24 h): 8.3 µM
Substance: RWQWRWQWR [PLS]
MBC ([1]; clinical isolate 48,526, 18 h): 100.0 µM | MBC ([2]; clinical isolate 1,225, 18 h): 100.0 µM | MBC ([3]; clinical isolate 50,181, 18 h): >100 µM | MBC ([4]; clinical isolate 51,009, 18 h): 100.0 µM | MBC ([5]; clinical isolate 48,220, 18 h): >100 µM | MBC ([6]; clinical isolate 47,661, 18 h): >100 µM | MBC ([7]; clinical isolate 48,221, 18 h): >100 µM | MBC ([8]; clinical isolate 43,062, 18 h): 100.0 µM | MBC ([9]; clinical isolate 49,644, 18 h): 100.0 µM | MBC ([10]; clinical isolate 50,424, 18 h): >100 µM | MBC ([11]; clinical isolate 1,461, 18 h): 100.0 µM | MBC ([12]; clinical isolate 550, 18 h): 100.0 µM | MBC ([13]; clinical isolate 43,337, 18 h): 50.0 µM | MBC ([14]; clinical isolate 1,462, 18 h): 100.0 µM | MBC ([15]; clinical isolate 52,013, 18 h): 100.0 µM | Gm, geometric mean of MIC50 values [16]: 17.4 µM

Substance: RRWQWR-NH2 [LfcinB (20–25), reference compound]
MIC50 [1, 17]: >100 µM | MBC [1, 18]: >100 µM | MIC50 [2, 19]: >100 µM | MBC [2, 20]: >100 µM | MIC50 [3, 21]: >100 µM | MBC [3, 22]: >100 µM | MIC50 [4, 23]: >100 µM | MBC [4, 24]: >100 µM | MIC50 [5, 25]: >100 µM | MBC [5, 26]: >100 µM | MIC50 [6, 27]: >100 µM | MBC [6, 28]: >100 µM | MIC50 [7, 29]: >100 µM | MBC [7, 30]: >100 µM | MIC50 [8, 31]: 5.1 µM | MBC [8, 32]: >100 µM | MIC50 ([9]; K. pneumoniae isolate 49,644, broth microdilution, 24 h 37°C, OD620, 50% growth inhibition): >100 µM | MBC ([9]; K. pneumoniae isolate 49,644, plated on agar 18 h 37°C, 99.9% reduction): >100 µM | MIC50 [10, 33]: 11.3 µM | MBC [10, 34]: >100 µM | MIC50 [11, 35]: >100 µM | MBC [11, 36]: >100 µM | MIC50 [12, 37]: >100 µM | MBC [12, 38]: >100 µM | MIC50 [13, 39]: 3.7 µM | MBC [13, 40]: >100 µM | MIC50 [14, 41]: >100 µM | MBC [14, 42]: >100 µM | MIC50 [15, 43]: 5.1 µM | MBC [15, 44]: >100 µM

MIC50 [1, 17]: 24.9 µM | MIC50 [2, 19]: >100 µM | MIC50 [3, 21]: 5.5 µM | MIC50 [4, 23]: 1.6 µM | MIC50 [5, 25]: 12.6 µM | MIC50 [6, 27]: 7.5 µM | MIC50 [7, 29]: 11.9 µM | MIC50 [8, 31]: 6.7 µM | MIC50 [10, 33]: 7.8 µM | MIC50 [11, 35]: >100 µM | MIC50 [12, 37]: >100 µM | MIC50 [13, 39]: 6.3 µM | MIC50 [14, 41]: >100 µM | MIC50 [15, 43]: 6.7 µM
Substance: (RRWQWR)4K2Ahx2C2 (disulfide) [LfcinB (20–25)4, branched tetrameric peptide (RRWQWR)4K2Ahx2C2, two dimers linked by a cysteine disulfide bridge]
MBC [1, 18]: >100 µM | MBC [2, 20]: 12.5 µM | MBC [3, 22]: 100.0 µM | MBC [4, 24]: 25.0 µM | MBC [5, 26]: 25.0 µM | MBC [6, 28]: 25.0 µM | MBC [7, 30]: 50.0 µM | MBC [8, 32]: 12.5 µM | MBC [10, 34]: 100.0 µM | MBC [11, 36]: 12.5 µM | MBC [12, 38]: 12.5 µM | MBC [13, 40]: 12.5 µM | MBC [14, 42]: 12.5 µM | MBC [15, 44]: 12.5 µM | Fold (GM peptide / GM tetrameric peptide) ([16]; Gram-negative clinical isolates): 1.0 | Gm, geometric mean of MIC50 values ([16]; Gram-negative clinical isolates (K. pneumoniae, P. aeruginosa) with a printed MIC50): 9.7 µM

— paper PMC5840262, “Design, Synthesis and Evaluation of Branched RRWQWR-Based Peptides as Antibacterial Agents Against Clinically Relevant Gram-Positive and Gram-Negative Pathogens” (Frontiers in Microbiology, 2018)
